Test results: ChEMBL document CHEMBL2331290, “4-Hydroxypyridazin-3(2H)-one derivatives as novel D-amino acid oxidase inhibitors” (J Med Chem, 2013)
pIC50: −log10 of the molar value.

How the values were obtained:
[1] = Effective permeability of the compound at pH 6.5 after 2 hrs by PAMPA; format: ADME; conditions: read-out: Peff
D-amino-acid oxidase [2] = target: T1, D-amino-acid oxidase (Homo sapiens, UniProt P14920); assay: Inhibition of human recombinant DAAO after 30 mins by plate reader analysis
T1 sequence (P14920 whole entry): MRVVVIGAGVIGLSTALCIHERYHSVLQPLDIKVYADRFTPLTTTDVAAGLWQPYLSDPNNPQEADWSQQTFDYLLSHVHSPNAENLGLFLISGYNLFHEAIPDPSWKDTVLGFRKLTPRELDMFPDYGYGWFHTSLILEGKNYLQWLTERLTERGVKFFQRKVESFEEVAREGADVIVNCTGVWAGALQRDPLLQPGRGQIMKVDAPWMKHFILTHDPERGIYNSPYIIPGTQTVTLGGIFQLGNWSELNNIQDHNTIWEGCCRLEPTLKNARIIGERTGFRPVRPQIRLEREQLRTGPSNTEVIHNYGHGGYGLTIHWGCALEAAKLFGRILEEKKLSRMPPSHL

D-amino-acid oxidase [3] = target: T1, D-amino-acid oxidase
Description: Inhibition of DAAO (unknown origin) by cell based assay

HEK293 = assay: Cytotoxicity against HEK293 cells overexpressing human full length DAAO by Alamar Blue assay; format: cell-based
D-amino-acid oxidase [4] = target: D-amino-acid oxidase (Mus musculus, UniProt P18894)
Chain of D-amino-acid oxidase (Mus musculus, UniProt P18894) (P18894 whole entry): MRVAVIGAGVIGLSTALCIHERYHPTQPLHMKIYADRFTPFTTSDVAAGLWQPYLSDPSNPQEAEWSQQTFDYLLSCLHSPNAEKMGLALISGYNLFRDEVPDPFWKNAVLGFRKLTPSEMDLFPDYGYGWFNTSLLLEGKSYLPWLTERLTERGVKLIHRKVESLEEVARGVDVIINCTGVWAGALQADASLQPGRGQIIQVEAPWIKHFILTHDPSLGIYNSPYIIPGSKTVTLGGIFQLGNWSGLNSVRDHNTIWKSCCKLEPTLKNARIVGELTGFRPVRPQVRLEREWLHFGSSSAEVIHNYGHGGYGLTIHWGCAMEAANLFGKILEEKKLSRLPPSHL
Description: Inhibition of mouse full length DAAO overexpressed in HEK293 cells after 30 mins by plate reader analysis

D-amino-acid oxidase [5] = target: D-amino-acid oxidase (Rattus norvegicus, UniProt O35078)
Chain of D-amino-acid oxidase (Rattus norvegicus, UniProt O35078) (O35078 whole entry): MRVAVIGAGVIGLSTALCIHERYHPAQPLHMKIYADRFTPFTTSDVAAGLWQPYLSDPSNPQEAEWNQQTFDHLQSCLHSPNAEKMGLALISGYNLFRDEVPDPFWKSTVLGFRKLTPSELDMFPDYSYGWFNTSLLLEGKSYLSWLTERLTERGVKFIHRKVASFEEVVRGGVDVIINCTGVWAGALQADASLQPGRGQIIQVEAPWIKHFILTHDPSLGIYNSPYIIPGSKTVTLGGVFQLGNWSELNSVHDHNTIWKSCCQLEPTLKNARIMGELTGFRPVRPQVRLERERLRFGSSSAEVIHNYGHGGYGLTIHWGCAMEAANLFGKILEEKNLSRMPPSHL
Description: Inhibition of rat full length DAAO overexpressed in HEK293 cells after 30 mins by plate reader analysis

D-amino-acid oxidase [6] = target: T1, D-amino-acid oxidase; remark: listed apart in the source
Description: Inhibition of human full length DAAO overexpressed in HEK293 cells after 30 mins by plate reader analysis

[7] = Drug uptake in ddY mouse brain at 30 mg/kg, po after 30 mins by LC-MS/MS analysis; format: ADME, organism-based; parameters: dose 30 mg/kg, route oral; conditions: read-out: Drug uptake
[8] = Plasma concentration in ddY mouse at 30 mg/kg, po after 30 mins by LC-MS/MS analysis; format: ADME, organism-based; parameters: dose 30 mg/kg, route oral

pIC50 (D-amino-acid oxidase [4])	pIC50 (D-amino-acid oxidase [5])	Compound	other results
8.48	8.34	O=c1[nH]nc(CCc2ccccc2)cc1O	–
8.55	8.51	CC(c1ccccc1)c1cc(O)c(=O)[nH]n1 (stereo not drawn)	–
6.37	5.91	O=c1[nH]nc(CCCc2ccccc2)cc1O	–
8.34	8.19	O=c1cc(COc2ccccc2)[nH]nc1O	–
8.44	8.31	O=c1[nH]nc(CCc2ccccc2F)cc1O	–
8.15	7.39	O=c1[nH]nc(CCc2ccccc2C(F)(F)F)cc1O	–
8.72	8.59	O=c1[nH]nc(CCc2cccc(F)c2)cc1O	–
8.36	8.25	COc1cccc(CCc2cc(O)c(=O)[nH]n2)c1	–

The remaining lines, values behind:

Compound	pIC50 (D-amino-acid oxidase [4])	pIC50 (D-amino-acid oxidase [5])	other results
O=c1[nH]c2ccccc2cc1O	–	–	Papp at 2 h [1]: 18.2 ×10⁻⁶ cm/s
O=c1[nH]cc(Cl)cc1O	–	–	Papp at 2 h [1]: 6.4 ×10⁻⁶ cm/s; pIC50 (D-amino-acid oxidase [2]): 7.33; pIC50 (D-amino-acid oxidase [3]): 6.03
Cc1c[nH]c(=O)c(O)c1	–	–	pIC50 (D-amino-acid oxidase [2]): 6.85; Activity (HEK293): Toxic
O=c1[nH]cc(CCc2ccccc2)cc1O	–	–	Papp at 2 h [1]: > 30 ×10⁻⁶ cm/s; Activity (HEK293): Toxic
O=c1[nH]nc(CCC2CCCCC2)cc1O	8.49	8.09	–
O=c1[nH]nc(CCc2ccc(Cl)cc2)cc1O	8.72	8.62	–
O=c1[nH]nc(/C=C/c2ccc(Cl)cc2)cc1O	6.62	6.33	pIC50 (D-amino-acid oxidase [6]): 6.24; pIC50 (D-amino-acid oxidase [2]): 6.92
O=c1[nH]nc(C2CCCCC2)cc1O	< 6.00	< 6.00	pIC50 (D-amino-acid oxidase [6]): < 6.00; pIC50 (D-amino-acid oxidase [2]): 6.52
CC(C)(C)CCc1cc(O)c(=O)[nH]n1	< 6.00	< 6.00	pIC50 (D-amino-acid oxidase [6]): < 6.00; pIC50 (D-amino-acid oxidase [2]): 6.17
O=c1[nH]nc(CCc2ccc(F)cc2)cc1O	8.60	8.66	–
COc1ccc(CCc2cc(O)c(=O)[nH]n2)cc1	8.44	8.42	–
O=c1[nH]nc(CCc2cc(F)cc(F)c2)cc1O	8.36	7.80	concentration at 0.5 h [7]: 460 ng/mL; concentration at 0.5 h [8]: 6540 ng/mL
O=c1[nH]nc(CCc2cc(C(F)(F)F)cc(C(F)(F)F)c2)cc1O	6.31	5.72	–
COc1cc(CCc2cc(O)c(=O)[nH]n2)cc(OC)c1	7.92	7.72	–
Oc1cccnc1O	–	–	pIC50 (D-amino-acid oxidase [2]): 5.94
O=C(O)c1cc2sccc2[nH]1	–	–	Papp at 2 h [1]: 0.8 ×10⁻⁶ cm/s; pIC50 (D-amino-acid oxidase [2]): 8.85; pIC50 (D-amino-acid oxidase [3]): 6.83
O=c1[nH]nc(CCc2ccc(C(F)(F)F)cc2)cc1O [LUVADAXISTAT]	8.23	8.30	–
